The series can be described thus: Determination of nanoparticle (lipoplex) size by dynamic light scattering. Format: physicochemical. The conditions noted are these: ratio 3:24 (w:w); for Conformity (C)/ Non-conformity (NC) / Mean Diameter (nm): complexes with pDNA; for Mean Diameter (nm): dynamic light scattering at 25°C; for Mean Diameter (nm) / PDI: triplicate measurements; for PDI: polydispersity index of complexes with pDNA, 25°C. The method, then: • 1. Preparative HPLC Method: Unless otherwise indicated, the compounds described herein were purified by RP-MPLC ARMEN® Spot Flash Liquid Chromatography (ARMEN Instrument, Saint Ave, France) on a preparative column (SVF D26) packed with 25-40 µm C18 resin (Merck chimie SAS), by applying a linear gradient of 0-10% MeCN in NH4OAc (10 mM) solution (pH = 9) over 60 min at a 15 mL/min flow rate. The purification was monitored at 254 nm. Suitable fractions were pooled and lyophilised. • 2. Proton NMR Spectra: Unless otherwise indicated, all ^1H NMR spectra were run on a Bruker series 300 MHz instrument. Where so characterized, all observed protons are reported as parts-per-million (ppm) downfield from tetramethylsilane (TMS) or other internal reference in the appropriate solvent indicated. NMR spectra were recorded on a Brucker 300 spectrometer. For ^1H (300 MHz) spectra δ values were referenced to CDCI3-d1 (7.26 ppm), DMSO- d6 (2.50 ppm), D2O-d2 (4.79 ppm) or MeOD-d4 (3.31 ppm). The peak patterns are indicated as follows: s: singlet, sl: large singlet, d: doublet, t: triplet, q: quartet, m: multiplet. • 3. Mass Spectra (MS): Analyses were run on an Agilent Model 6130 quadrupole MS. Unless otherwise indicated, all mass spectral data for starting materials, intermediates and/or exemplary compounds are reported as mass/charge (m/z), having an (M+H)^+ molecular ion. The molecular ion reported was obtained by electrospray detection method (commonly referred to as an ESI MS). Compounds having an isotopic atom, such as bromine and the like, are generally reported according to the detected isotopic pattern, as appreciated by those skilled in the art. • 4. Particle size: Particle size was determined using a Malvern Nanosizer (Malvern, Worcestershire, UK) and Malvern ZETASIZER.RTM. (Malvern, Worcestershire, UK). • 5. Naming Convention The compounds disclosed and described herein have been named using the naming convention provided with Chem-Draw Ultra 11.0 software, available in Chem. Office. In some instances, compounds were named with the term "spermine" inserted where appropriate. For example, where the spermine is substituted with Boc, "N1,N5,N10-TriBoc-spermine" is added to the Chem-Draw nomenclature in the appropriate place. Chem-Draw utilizes the ISIS Draw software compound naming convention, as appreciated by those skilled in the art.
For pDNA:TLR7-TLR2 polyamine molecules complexes, a ratio pDNA:TLR7-TLR2 polyamine molecules of 3:24 (w:w) was prepared in serum-free culture medium or in 5% glucose. The TLR7-TLR2 conjugated compound of interest was prediluted in serum-free culture medium or in 5% glucose and incubated for 5 minutes at room temperature, prior to the addition of an endotoxin-free, salt-free preparation of pDNA. In these experiments, the pBsr2pCpGLacZh plasmid was used in the pDNA:TLR7-TLR2 polyamine molecule complexes. The pDNA:TLR7-TLR2 polyamine molecule mixtures were incubated at room temperature for 30 minutes to allow the formation of the complex. The control used in these experiments was the cationic lipid transfection agent LyoVec™ (InvivoGen) prepared in a similar manner.
In order to confirm that TLR7-TLR2 polyamine molecules complex DNA, lipoplex size was determined. The physical characterization of complex was achieved by dynamic light scattering using the analytical equipment for laser diffraction Zetasizer Nano-ZS (Malvern). pDNA:TLR7-TLR2 polyamine molecule complexes were prepared as described above. Subsequently, 50µl of pDNA: TLR7-TLR2 polyamine molecule complexes were placed into a disposable sizing cuvette and measurements were made under conditions defined according to manufacturer's instructions. The measurements were made at 25°C in triplicate and a size distribution report was obtained. […]

Several values for one entry are separate records, joined by “and”; a condition that tells them apart may be missing. Equal values may be shown once.

`CCCCCCCCCCCCCCCC(=O)OCC(CSC[C@H](N)C(=O)N[C@@H](CO)C(=O)N[C@@H](CCCCN)C(=O)N[C@@H](CCCCN)C(=O)N[C@@H](CCCCNC(=O)c1ccc(Cn2c(O)nc3c(N)nc(NCCCC)nc32)cc1)C(=O)N[C@@H](CCCCN)C(=O)O)OC(=O)CCCCCCCCCCCCCCC` (stereo partly drawn) [CL530, (2S,5S,8S,11S,14S,17R)-17-amino-5-(4-(4-((6-amino-2-(butylamino)-8-hydroxy-9H-purin-9-yl)methyl)benzamido)butyl)-2,8,11-tris(4-aminobutyl)-14-(hydroxymethyl) -4,7,10,13,16,24-hexaoxo-21-(palmitoyloxy)-23-oxa-19-thia-3,6,9,12,15-pentaaza nonatriacontan-1-oic acid]: the “Conformity (C)/ Non-conformity (NC)” value is “NC (larger sizes were considered to show aggregates or non-conformity)”; the “Mean Diameter (nm)” value was 188,0 nm and 187,6 nm and 213,1 nm; the PDI was 0,332 and 0,351 and 0,315.

With `CCCCCCCCCCCCCCCC(=O)OCC(CSC[C@H](N)C(=O)N[C@@H](CO)C(=O)N[C@@H](CCCCN)C(=O)N[C@@H](CCCCNC(=O)c1ccc(Cn2c(O)nc3c(N)nc(NCCCC)nc32)cc1)C(=O)N[C@@H](CCCCN)C(=O)N[C@@H](CCCCN)C(=O)O)OC(=O)CCCCCCCCCCCCCCC` (stereo partly drawn) [CL531, (2S,5S,8S,11S,14S,17R)-17-amino-8-(4-(4-((6-amino-2-(butylamino)-8-hydroxy-9H-purin-9-yl)methyl)benzamido)butyl)-2,5,11-tris(4-aminobutyl)-14-(hydroxymethyl) -4,7,10,13,16,24-hexaoxo-21-(palmitoyloxy)-23-oxa-19-thia-3,6,9,12,15-pentaaza nonatriacontan-1-oic acid], the “Conformity (C)/ Non-conformity (NC)” value is “C (ranged between 140 and 200 nm in diameter were considered to show conformity)”; the “Mean Diameter (nm)” value was 145,0 nm and 143,8 nm and 140,1 nm; the PDI was 0,144 and 0,153 and 0,138.

For `CCCCCCCCCCCCCCCC(=O)OCC(CSC[C@H](N)C(=O)N[C@@H](CO)C(=O)N[C@@H](CCCCNC(=O)c1ccc(Cn2c(O)nc3c(N)nc(NCCCC)nc32)cc1)C(=O)N[C@@H](CCCCN)C(=O)N[C@@H](CCCCN)C(=O)N[C@@H](CCCCN)C(=O)O)OC(=O)CCCCCCCCCCCCCCC` (stereo partly drawn) [CL533, (2S,5S,8S,11S,14S,17R)-17-amino-11-(4-(4-((6-amino-2-(butylamino)-8-hydroxy-9H-purin-9-yl)methyl)benzamido)butyl)-2,5,8-tris(4-aminobutyl)-14-(hydroxylmethyl)-4,7,10,13,16,24-hexaoxo-21-(palmitoyloxy)-23-oxa-19-thia-3,6,9,12,15-pentaazanonatria contan-1-oic acid], the “Conformity (C)/ Non-conformity (NC)” value is “C (ranged between 140 and 200 nm in diameter were considered to show conformity)”; the “Mean Diameter (nm)” value was 140,4 nm and 149,8 nm and 141,5 nm; the PDI was 0,195 and 0,198 and 0,185.

Take `CCCCCCCCCCCCCCCC(=O)N[C@@H](CSCC(COC(=O)CCCCCCCCCCCCCCC)OC(=O)CCCCCCCCCCCCCCC)C(=O)N[C@@H](CO)C(=O)N[C@@H](CCCCN)C(=O)N[C@@H](CCCCN)C(=O)N[C@@H](CCCCNC(=O)c1ccc(Cn2c(O)nc3c(N)nc(NCCCC)nc32)cc1)C(=O)N[C@@H](CCCCN)C(=O)O` (stereo partly drawn) [CL535, (2S,5S,8S,11S,14S,17R)-5-(4-(4-((6-amino-2-(butylamino)-8-hydroxy-9H-purin-9-yl)methyl)benzamido)butyl)-2,8,11-tris(4-aminobutyl)-14-(hydroxymethyl)-4,7,10, 13,16,24-hexaoxo-17-palmitamido-21-(palmitoyloxy)-23-oxa-19-thia-3,6,9,12,15-pentaazanonatriacontan-1-oic acid]: the “Conformity (C)/ Non-conformity (NC)” value was “NC (larger sizes were considered to show aggregates or non-conformity)”; the “Mean Diameter (nm)” value is 229,5 nm and 232,3 nm and 226,8 nm; the PDI is 0,351 and 0,336 and 0,396.

Take `CCCCCCCCCCCCCCCC(=O)N[C@@H](CSCC(COC(=O)CCCCCCCCCCCCCCC)OC(=O)CCCCCCCCCCCCCCC)C(=O)N[C@@H](CO)C(=O)N[C@@H](CCCCN)C(=O)N[C@@H](CCCCNC(=O)c1ccc(Cn2c(O)nc3c(N)nc(NCCCC)nc32)cc1)C(=O)N[C@@H](CCCCN)C(=O)N[C@@H](CCCCN)C(=O)O` (stereo partly drawn) [CL536, (2S,5S,8S,11S,14S,17R)-8-(4-(4-((6-amino-2-(butylamino)-8-hydroxy-9H-purin-9-yl)methyl)benzamido)butyl)-2,5,11-tris(4-aminobutyl)-14-(hydroxymethyl)-4,7,10, 13,16,24-hexaoxo-17-palmitamido-21-(palmitoyloxy)-23-oxa-19-thia-3,6,9,12,15-pentaazanonatriacontan-1-oic acid]: the “Conformity (C)/ Non-conformity (NC)” value is “NC (larger sizes were considered to show aggregates or non-conformity)”; the “Mean Diameter (nm)” value was 231,9 nm and 236,1 nm and 225,8 nm; the PDI is 0,465 and 0,583 and 0,65.

In the case of `CCCCCCCCCCCCCCCC(=O)N[C@@H](CSCC(COC(=O)CCCCCCCCCCCCCCC)OC(=O)CCCCCCCCCCCCCCC)C(=O)N[C@@H](CO)C(=O)N[C@@H](CCCCNC(=O)c1ccc(Cn2c(O)nc3c(N)nc(NCCCC)nc32)cc1)C(=O)N[C@@H](CCCCN)C(=O)N[C@@H](CCCCN)C(=O)N[C@@H](CCCCN)C(=O)O` (stereo partly drawn) [CL537, (2S,5S,8S,11S,14S,17R)-11-(4-(4-((6-amino-2-(butylamino)-8-hydroxy-9H-purin-9-yl)methyl)benzamido)butyl)-2,5,8-tris(4-aminobutyl)-14-(hydroxymethyl)-4,7,10, 13,16,24-hexaoxo-17-palmitamido-21-(palmitoyloxy)-23-oxa-19-thia-3,6,9,12,15-pentaazanonatria contan-1-oic acid], the “Conformity (C)/ Non-conformity (NC)” value is “NC (larger sizes were considered to show aggregates or non-conformity)”; the “Mean Diameter (nm)” value is 198,1 nm and 203,5 nm and 219,3 nm; the PDI was 0,704 and 0,618 and 0,626.

Values taken from patent publication EP2769738B1, “Conjugated TLR7 and/or TLR8 and TLR2 polycationic agonists” (Invivogen, priority 2013, dated 2014).
